In data set [1] the test system is Trichomonas vaginalis G3 trophozoites. As to conditions: for T.vaginalis_%inb_Rep1: replicate 1; for T.vaginalis_%inb_Rep2: replicate 2.
The subject of data set [2] is nontumorigenic neonatal foreskin fibroblast (NFF) cell line.
[3] abbreviates: HTS single concentration, parasite screen 1 µg/mL.

Results on 32 compounds are retold here after paper PMC7897990, “TriTOX: A novel Trichomonas vaginalis assay platform for high-throughput screening of compound libraries” (International Journal for Parasitology: Drugs and Drug …, 2021).

Like-named read-outs stand apart in the source and are kept apart here.

In data set [1] (parasite screen at 1 µg/mL), `COc1ccc2c(c1OC)C(=O)O[C@@H]2[C@H]1c2cc3c(cc2CCN1C)OCO3` [BIA-H1954] showed a T.vaginalis_%inb_Rep1 of 11.27% and a T.vaginalis_%inb_Rep2 of 6.40%. Moreover, the NFF_Activity result in data set [2] (NFF cells, screen at 5 µg/mL) is “I (otherwise these were reported as inactive (I))”.
For `O=C1CCCC2C3CC(CN12)C1CC(O)CCN1C3` (stereo not drawn) [BIA-H1961], in that order: 9.18%, 14.99% and “I (otherwise these were reported as inactive (I))”.
On to `CN=C1NC(=O)[C@H]([C@H](C)c2c[nH]c3ccccc23)O1` [BIA-I1040], for which, in data set [1] (parasite screen at 1 µg/mL), the T.vaginalis_%inb_Rep1 was 25.76% and the T.vaginalis_%inb_Rep2 came to 5.58%. For the same compound, the NFF_Activity entry in data set [2] (NFF cells, screen at 5 µg/mL) is “I (otherwise these were reported as inactive (I))”.
In data set [1] (parasite screen at 1 µg/mL), `CO[C@H]1C[C@H](O[C@H]2[C@H](C)O[C@@H](O[C@@H]3/C(C)=C/C[C@@H]4C[C@@H](C[C@]5(CC[C@H](C)[C@@H](C(C)C)O5)O4)OC(=O)[C@@H]4C=C(C)[C@@H](O)[C@H]5OC/C(=C\C=C\[C@@H]3C)[C@]54O)C[C@@H]2OC)O[C@@H](C)[C@@H]1O` [BIA-I1117] had a T.vaginalis_%inb_Rep1 of 14.71% and a T.vaginalis_%inb_Rep2 of 14.82%. In addition, in data set [2] (NFF cells, screen at 5 µg/mL), the NFF_Activity result was “I (otherwise these were reported as inactive (I))”.
In data set [1] (parasite screen at 1 µg/mL), `CC[C@H](C)[C@H]1O[C@]2(CC[C@@H]1C)C[C@@H]1C[C@@H](C/C=C(\C)[C@@H](O[C@H]3C[C@H](OC)[C@@H](O[C@H]4C[C@H](OC)[C@@H](O)[C@H](C)O4)[C@H](C)O3)[C@@H](C)/C=C/C=C3\CO[C@@H]4[C@H](O)C(C)=C[C@@H](C(=O)O1)[C@]34O)O2` [BIA-I1119] came in with a T.vaginalis_%inb_Rep1 of 13.79% and a T.vaginalis_%inb_Rep2 of 12.96%. For the same compound, the NFF_Activity entry in data set [2] (NFF cells, screen at 5 µg/mL) is “I (otherwise these were reported as inactive (I))”.
As for `CC[C@H](C)[C@H]1O[C@]2(CC[C@@H]1C)C[C@@H]1C[C@@H](C/C=C(\C)[C@@H](O[C@H]3C[C@H](OC)[C@@H](O)[C@H](C)O3)[C@@H](C)/C=C/C=C3\CO[C@@H]4[C@H](O)C(C)=C[C@@H](C(=O)O1)[C@]34O)O2` [BIA-I1150], in data set [1] (parasite screen at 1 µg/mL), the T.vaginalis_%inb_Rep1 came to 15.62% and the T.vaginalis_%inb_Rep2 is recorded as 12.38%. The NFF_Activity result in data set [2] (NFF cells, screen at 5 µg/mL) was “I (otherwise these were reported as inactive (I))”.
For `CC[C@H](C)[C@H]1O[C@]2(CC[C@@H]1C)C[C@@H]1C[C@@H](C/C=C(\C)[C@@H](O)[C@@H](C)/C=C/C=C3\CO[C@@H]4[C@H](O)C(C)=C[C@@H](C(=O)O1)[C@]34O)O2` [BIA-I1151], in that order: 12.98%, 12.38% and “I (otherwise these were reported as inactive (I))”.
The matching figures for `CC[C@H](C)[C@H]1O[C@]2(CC[C@@H]1C)C[C@@H]1C[C@@H](C/C=C(\C)[C@@H](O[C@H]3C[C@H](OC)[C@@H](O[C@H]4C[C@H](OC)[C@@H](O)[C@H](C)O4)[C@H](C)O3)[C@@H](C)/C=C/C=C3\CO[C@@H]4[C@H](O)C(C)C=C(C(=O)O1)[C@]34O)O2` (stereo partly drawn) [BIA-I1581]: 13.44%, 13.34% and “I (otherwise these were reported as inactive (I))”.
In data set [1] (parasite screen at 1 µg/mL), `CN(C)C1C(=O)C(C(N)=O)=C(O)C2(O)C(=O)CC(C3(C)OC(=O)c4c(O)ccc(Cl)c43)CC12` (stereo not drawn) [BIA-I1656] registered a T.vaginalis_%inb_Rep1 of 15.87% and a T.vaginalis_%inb_Rep2 of 12.89%. The NFF_Activity entry in data set [2] (NFF cells, screen at 5 µg/mL) was “I (otherwise these were reported as inactive (I))”.
The matching figures for `COC(=O)C1=CO[C@@H](C)[C@@H]2CN3CCc4c([nH]c5cc(OC)c(OC)cc45)[C@@H]3C[C@H]12` [BIA-I1957]: 9.33%, 14.44% and “I (otherwise these were reported as inactive (I))”.
On to `O=C1C=CC(=O)c2c(O)cccc21` [BIA-J1739], for which, in data set [1] (parasite screen at 1 µg/mL), the T.vaginalis_%inb_Rep1 was 12.73% and the T.vaginalis_%inb_Rep2 was 10.78%. For the same compound, in data set [2] (NFF cells, screen at 5 µg/mL), the NFF_Activity result was “A (active (A) compounds having >25% inhibitory activity)”.
In the case of `COC(=O)C1(O)CC2OC1(C)n1c3ccccc3c3c4c(c5c6ccccc6n2c5c31)C(=O)NC4` (stereo not drawn) [BIA-K1225], in data set [1] (parasite screen at 1 µg/mL), the T.vaginalis_%inb_Rep1 is given as 61.16% and the T.vaginalis_%inb_Rep2 amounted to 66.84%. Further, the NFF_Activity result in data set [2] (NFF cells, screen at 5 µg/mL) was “A (active (A) compounds having >25% inhibitory activity)”.
For `COc1cc(C)c2c(OC)cc(=O)oc2c1-c1c(OC)cc(C)c2c(OC)cc(=O)oc12` [BIA-K1634], in that order: 14.30%, 13.02% and “I (otherwise these were reported as inactive (I))”.
The matching figures for `O=c1cc(CO)occ1O` [BIA-K1696]: 13.34%, 13.98% and “I (otherwise these were reported as inactive (I))”.
In data set [1] (parasite screen at 1 µg/mL), `Cc1c2ccocc-2oc1=O` [BIA-K1791] registered a T.vaginalis_%inb_Rep1 of 12.47% and a T.vaginalis_%inb_Rep2 of 13.47%. The NFF_Activity result in data set [2] (NFF cells, screen at 5 µg/mL) was “I (otherwise these were reported as inactive (I))”.
In data set [1] (parasite screen at 1 µg/mL), `O=c1cc2ccocc-2o1` [BIA-K1792] showed a T.vaginalis_%inb_Rep1 of 12.93% and a T.vaginalis_%inb_Rep2 of 13.15%. Besides, the NFF_Activity entry in data set [2] (NFF cells, screen at 5 µg/mL) was “I (otherwise these were reported as inactive (I))”.
Regarding `CC(C=CC1OC(=O)C=CC1C)=CC(C)CC=CC(C)=CC(C)C(=O)C(C)C(O)C(C)CC(C)=CC(=O)O` (stereo not drawn) [BIA-L1045], in data set [1] (parasite screen at 1 µg/mL), the T.vaginalis_%inb_Rep1 came out at 3.96% and the T.vaginalis_%inb_Rep2 is on record as 1.86%. The NFF_Activity entry in data set [2] (NFF cells, screen at 5 µg/mL) is “A (active (A) compounds having >25% inhibitory activity)”.
As to `CCC(C=CC1OC(=O)C=CC1C)=CC(C)CC=CC(C)=CC(C)C(=O)C(C)C(O)C(C)CC(C)=CC(=O)O` (stereo not drawn) [BIA-L1046], in data set [1] (parasite screen at 1 µg/mL), the T.vaginalis_%inb_Rep1 worked out at 99.95% and the T.vaginalis_%inb_Rep2 is given as 96.86%. Moreover, in data set [2] (NFF cells, screen at 5 µg/mL), the NFF_Activity entry was “A (active (A) compounds having >25% inhibitory activity)”.
In data set [1] (parasite screen at 1 µg/mL), `COc1cc(O)c2c(c1)C=CCC(O)C(O)C(=O)C=CCC(C)OC2=O` (stereo not drawn) [BIA-L1160] displayed a T.vaginalis_%inb_Rep1 of 12.27% and a T.vaginalis_%inb_Rep2 of 12.76%. For the same compound, the NFF_Activity result in data set [2] (NFF cells, screen at 5 µg/mL) is “I (otherwise these were reported as inactive (I))”.
For the compound `CC[C@H](C)C(=O)O[C@H]1C[C@@H](C)C=C2C=C[C@H](C)[C@H](CC[C@@H]3C[C@@H](O)CC(=O)O3)[C@H]21` [BIA-L1264], in data set [1] (parasite screen at 1 µg/mL), the T.vaginalis_%inb_Rep1 was determined as 13.08% and the T.vaginalis_%inb_Rep2 is given as 12.64%. Moreover, the NFF_Activity entry in data set [2] (NFF cells, screen at 5 µg/mL) is listed as “A (active (A) compounds having >25% inhibitory activity)”.
The matching figures for `CCC[C@@H]1C[C@@H](C(=O)N[C@@H]([C@H]2O[C@H](SC)[C@H](O)[C@@H](O)[C@H]2O)[C@@H](C)O)N(C)C1` [BIA-L1457]: 12.27%, 9.94% and “I (otherwise these were reported as inactive (I))”.
With `CCC(C(=O)C(C)C(O)C(C)CCc1ccc(C)c(O)c1C(=O)O)C1OC(CC)(C2CCC(O)(CC)C(C)O2)CC1C` (stereo not drawn) [BIA-L1533], in data set [1] (parasite screen at 1 µg/mL), the T.vaginalis_%inb_Rep1 is reported as 11.71% and the T.vaginalis_%inb_Rep2 was 10.90%. Moreover, the NFF_Activity entry in data set [2] (NFF cells, screen at 5 µg/mL) is “I (otherwise these were reported as inactive (I))”.
In data set [1] (parasite screen at 1 µg/mL), `Cc1cc(OC(=O)c2c(C)cc(O)cc2O)cc(O)c1C(=O)O` [BIA-L1669] registered a T.vaginalis_%inb_Rep1 of 11.51% and a T.vaginalis_%inb_Rep2 of 3.53%. For the same compound, the NFF_Activity result in data set [2] (NFF cells, screen at 5 µg/mL) was “I (otherwise these were reported as inactive (I))”.
In data set [1] (parasite screen at 1 µg/mL), `CCCCCc1c2c(cc(O)c1C(=O)O)OC(=O)c1c(cc(OC)cc1C(=O)CCCC)O2` [BIA-L1671] came in with a T.vaginalis_%inb_Rep1 of 10.45% and a T.vaginalis_%inb_Rep2 of 14.37%. For the same compound, the NFF_Activity result in data set [2] (NFF cells, screen at 5 µg/mL) was “I (otherwise these were reported as inactive (I))”.
Take `CC1(C)OC2CC(=O)OCC23C1CC(=O)C1(C)C3CCC2(C)C(c3ccoc3)OC(=O)C3OC321` (stereo not drawn) [BIA-L1755]: in data set [1] (parasite screen at 1 µg/mL), the T.vaginalis_%inb_Rep1 was 11.46% and the T.vaginalis_%inb_Rep2 is listed as 13.09%. Also, the NFF_Activity entry in data set [2] (NFF cells, screen at 5 µg/mL) was “I (otherwise these were reported as inactive (I))”.
Take `C=C(C)C1CCC2(C)CCC3(C)C(CCC4C5(C)CCC(O)C(C)(C)C5CCC43C)C12` (stereo not drawn) [BIA-L1759]: in data set [1] (parasite screen at 1 µg/mL), the T.vaginalis_%inb_Rep1 turned out to be 12.73% and the T.vaginalis_%inb_Rep2 amounted to 12.70%. Moreover, the NFF_Activity entry in data set [2] (NFF cells, screen at 5 µg/mL) was “I (otherwise these were reported as inactive (I))”.
In data set [1] (parasite screen at 1 µg/mL), `O=C1CCC[C@@H]2[C@H]3C[C@@H](CN12)[C@@H]1CCCCN1C3` [BIA-L1951] showed a T.vaginalis_%inb_Rep1 of 8.91% and a T.vaginalis_%inb_Rep2 of 11.70%. In data set [2] (NFF cells, screen at 5 µg/mL), the NFF_Activity entry is “I (otherwise these were reported as inactive (I))”.
With `COc1c(-c2ccccc2)c2ccccc2[nH]c1=O` [BIA-M1149], in data set [1] (parasite screen at 1 µg/mL), the T.vaginalis_%inb_Rep1 stood at 20.69% and the T.vaginalis_%inb_Rep2 is 13.28%. The NFF_Activity entry in data set [2] (NFF cells, screen at 5 µg/mL) was “I (otherwise these were reported as inactive (I))”.
In data set [1] (parasite screen at 1 µg/mL), `CCC(C)C(=O)OC1CCC=C2C=CC(C)C(CCC3CC(O)CC(=O)O3)C21` (stereo not drawn) [BIA-M1209] had a T.vaginalis_%inb_Rep1 of 12.32% and a T.vaginalis_%inb_Rep2 of 10.01%. Also, in data set [2] (NFF cells, screen at 5 µg/mL), the NFF_Activity result is “I (otherwise these were reported as inactive (I))”.
In data set [1] (parasite screen at 1 µg/mL), `COc1cccc2oc3c4c(cc(OC)c3c(=O)c12)OC1OC=CC41` (stereo not drawn) [BIA-M1214] returned a T.vaginalis_%inb_Rep1 of 13.54% and a T.vaginalis_%inb_Rep2 of 12.19%. For the same compound, the NFF_Activity entry in data set [2] (NFF cells, screen at 5 µg/mL) was “I (otherwise these were reported as inactive (I))”.
Take `CC=CC(C)=CC(C)C(=O)CC(O)CC1CC(=O)NC(=O)C1` (stereo not drawn) [BIA-M1404]: in data set [1] (setting [3]), the T.vaginalis_%inb_Rep1 was 18.76% and the T.vaginalis_%inb_Rep2 came to 13.41%. For the same compound, the NFF_Activity entry in data set [2] (NFF_NS1 screen 5 µg/mL, single concentration) was “I (otherwise these were reported as inactive (I))”.
In data set [1] (parasite screen at 1 µg/mL), `C=C1c2c(Cl)ccc(O)c2C(O)=C2C(=O)C3(O)C(O)=C(C(N)=O)C(=O)C(N(C)C)C3C(O)C12` (stereo not drawn) [BIA-M1464] showed a T.vaginalis_%inb_Rep1 of 17.14% and a T.vaginalis_%inb_Rep2 of 5.39%. Also, in data set [2] (NFF cells, screen at 5 µg/mL), the NFF_Activity entry was “I (otherwise these were reported as inactive (I))”.
